# Assay results published in patent US12310963B2, “Pyrazole derivatives and use thereof” (Tarapeutics Science Inc., priority 2019, dated 2025).
# Legend:
# [1] = tested on: BaF3-tel-PDGFRβ (stably expressing PDGFRβ kinase); experiment: Growth of BaF3-tel-PDGFRβ cells, Cell Titer-Glo, 72 h; assay type: cell-based, mouse
# Excerpt: (§1) In this example, mouse primary B cell BaF3 (purchased from ATCC, U.S.A.) was used. In addition, in this example, mouse BaF3-tel-PDGFRα (stably expressing PDGFRα kinase), mouse BaF3-tel-PDGFRβ (stably expressing PDGFRβ kinase), BaF3-P210 (stably expressing ABL kinase), BaF3-P210-T315I (stably expressing ABL-T315I kinase), BaF3-FL-BRAF-V600E (stably expressing BRAF-V600E kinase), BaF3-TEL-cKIT (stably expressing cKIT kinase), BaF3-TEL-VEGFR2 (stably expressing VEGFR2 kinase), BaF3-TEL-FGFR2 (stably expressing FGFR2 kinase) were also used. The above-mentioned cell trains were all constructed in our laboratory by the method as follows. The sequences of human BCR-ABL (P210 or P210/T315I mutated), full-length BRAF-V600E, cKIT, VEGFR2, FGFR2, PDGFRα, PDGFRβ kinase region were amplified respectively via PCR, and inserted respectively into a MSCV-Puro vector (purchased from Clontech) having a N-terminal TEL fragment and/or NPM fragment and/or TPR fragment, and stably transferred into mouse BaF3 cells by the retroviral method, and the growth factor IL-3 was removed. Eventually, cell lines which are transferred into proteins depending on PDGFRα, PDGFRβ were obtained.
# (§2) In this example, solutions of the test compound at different concentrations (0.000508 μM, 0.00152 μM, 0.00457 μM, 0.0137 μM, 0.0411 μM, 0.123 μM, 0.370 μM, 1.11 μM, 3.33 μM, 10 μM) were added to the above cells. The cells were incubated for 72 hours.
# BaF3 = experiment: Growth of parental BaF3 cells, Cell Titer-Glo, 72 h; assay type: cell-based; settings: Mus musculus
# Excerpt: as §1, §2
# [2] = tested on: BaF3-tel-PDGFRα (stably expressing PDGFRα kinase); experiment: Growth of BaF3-tel-PDGFRα cells, Cell Titer-Glo, 72 h; assay type: cell-based, mouse
# Excerpt: as §1, §2
SMILES,GI50 [1] [nM],GI50 [2] [nM],GI50 (BaF3) [nM]
"Cc1ccc(NC(=O)c2cccc(C(F)(F)F)n2)cc1-n1cc(-c2cnccc2OCC2CCCC2)cn1 [Compound 10, N-(3-(4-(4-(cyclopentylmethoxy)pyridin-3-yl)-1H-pyrazol-1-yl)-4-methylphenyl)-6-(trifluoromethyl)picolinamide]",62,,> 10000
"Cc1ccc(NC(=O)c2cccc(C(F)(F)F)n2)cc1-n1cc(-c2cnccc2OCCN2CCOCC2)cn1 [Compound 4, N-(4-methyl-3-(4-(4-(2-morpholinoethoxy)pyridin-3-yl)-1H-pyrazol-1-yl)phenyl)-6-(trifluoromethyl)picolinamide]",3.2,< 0.3,~10000
"Cc1ccc(NC(=O)c2cccc(Cl)n2)cc1-n1cc(-c2cncc(N3CCN(C)CC3)c2)nn1 [Compound 22, 6-chloro-N-(4-methyl-3-(4-(5-(4-methylpiperazin-1-yl)pyridin-3-yl)-1H-1,2,3-triazol-1-yl)phenyl)picolinamide]",< 10,< 10,960
"Cc1ccc(NC(=O)c2ccnc(C(F)(F)F)c2)cc1-n1cc(-c2cnccc2OCC2CCCO2)cn1 (stereo not shown) [Compound 9, N-(4-methyl-3-(4-(4-((tetrahydrofuran-2-yl)methoxy)pyridin-3-yl)-1H-pyrazol-1-yl)phenyl)-2-(trifluoromethyl)isonicotinamide]",< 0.3,,> 10000
"Cc1ccc(NC(=O)c2ccnc(C(F)(F)F)c2)cc1-n1cc(-c2cnccc2OCC2CCOCC2)cn1 [Compound 3, N-(4-methyl-3-(4-(4-((tetrahydropyran-4-yl)methoxy)pyridin-3-yl)-1H-pyrazol-1-yl)phenyl)-2-(trifluoromethyl)isonicotinamide]",1.4,1.4,6500
"CN1CCN(c2cncc(-c3cn(-c4cc(NC(=O)c5cccc(C(F)(F)F)n5)ccc4F)nn3)c2)CC1 [Compound 24, N-(4-fluoro-3-(4-(5-(4-methylpiperazin-1-yl)pyridin-3-yl)-1H-1,2,3-triazol-1-yl)phenyl)-6-(trifluoromethyl)picolinamide]",< 10,< 10,4760
"CN1CCN(c2cncc(-c3cn(-c4cc(NC(=O)c5cncc(C(F)(F)F)c5)ccc4F)nn3)c2)CC1 [Compound 26, N-(4-fluoro-3-(4-(5-(4-methylpiperazin-1-yl)pyridin-3-yl)-1H-1,2,3-triazol-1-yl)phenyl)-5-(trifluoromethyl)nicotinamide]",< 10,< 10,4740
"Cc1ccc(NC(=O)c2cccc(C(F)(F)F)n2)cc1-n1cc(-c2cnccc2OCC2CCCO2)cn1 (stereo not shown) [Compound 8, N-(4-methyl-3-(4-(4-((tetrahydrofuran-2-yl)methoxy)pyridin-3-yl)-1H-pyrazol-1-yl)phenyl)-6-(trifluoromethyl)picolinamide]",1.3,,> 10000
"CN1CCN(c2cncc(-c3cn(-c4cc(NC(=O)c5ccnc(C(F)(F)F)c5)ccc4F)nn3)c2)CC1 [Compound 25, N-(4-fluoro-3-(4-(5-(4-methylpiperazin-1-yl)pyridin-3-yl)-1H-1,2,3-triazol-1-yl)phenyl)-2-(trifluoromethyl) isonicotinamide]",< 10,< 10,5550
"Cc1ccc(NC(=O)c2cccc(C(F)(F)F)n2)cc1-n1cc(-c2cnccc2OCC2CCOCC2)cn1 [Compound 13, N-(4-methyl-3-(4-(4-((tetrahydropyran-4-yl)methoxy)pyridin-3-yl)-1H-pyrazol-1-yl)phenyl)-6-(trifluoromethyl)picolinamide]",5.5,1.6,> 10000
"Cc1ccc(NC(=O)c2ccnc(C(F)(F)F)c2)cc1-n1cc(-c2cnccc2OCCN2CCOCC2)cn1 [Compound 5, N-(4-methyl-3-(4-(4-(2-morpholinoethoxy)pyridin-3-yl)-1H-pyrazol-1-yl)phenyl)-2-(trifluoromethyl)isonicotinamide]",< 0.3,< 0.3,~10000
"CN1CCN(c2cncc(-c3cn(-c4cc(NC(=O)c5cccc(F)n5)ccc4F)nn3)c2)CC1 [Compound 29, 6-fluoro-N-(4-fluoro-3-(4-(5-(4-methylpiperazin-1-yl)pyridin-3-yl)-1H-1,2,3-triazol-1-yl)phenyl)picolinamide]",< 10,< 10,2840
"Cc1ccc(NC(=O)c2ccnc(C(F)(F)F)c2)cc1-n1cc(-c2cnccc2OCC2CCCC2)cn1 [Compound 11, N-(3-(4-(4-(cyclopentylmethoxy)pyridin-3-yl)-1H-pyrazol-1-yl)-4-methylphenyl)-2-(trifluoromethyl)isonicotinamide]",1.1,,> 10000

# More lines, main results first:
GI50 [1] [nM],GI50 [2] [nM],SMILES,GI50 (BaF3) [nM]
< 10,< 10,"Cc1ccc(NC(=O)c2cncc(C(F)(F)F)c2)cc1-n1cc(-c2cncc(N3CC4(COC4)C3)c2)nn1 [Compound 40, N-(3-(4-(5-(2-oxa-6-aza-spiro[3.3]hept-6-yl]pyridin-3-yl)-1H-1,2,3-triazol-1-yl)-4-methylphenyl)-5-(trifluoromethyl)nicotinamide]",9990
< 10,< 10,"Cc1ccc(NC(=O)c2cc(C(F)(F)F)ccn2)cc1-n1cc(-c2cncc(N3CC4(COC4)C3)c2)nn1 [Compound 41, N-(3-(4-(5-(2-oxa-6-aza-spiro[3.3]hept-6-yl]pyridin-3-yl)-1H-1,2,3-triazol-1-yl)-4-methylphenyl)-4-(trifluoromethyl)picolinamide]",3660
< 10,< 10,"Cc1ccc(NC(=O)c2cncc(C(F)(F)F)c2)cc1-n1cc(-c2cncc(N3CC4(COC4)C3)c2)cn1 [Compound 34, N-(3-(4-(5-(2-oxa-6-aza-spiro[3.3]hept-6-yl]pyridin-3-yl)-1H-pyrazol-1-yl)-4-methylphenyl)-5-(trifluoromethyl)nicotinamide]",> 10000
< 10,< 10,"Cc1ccc(NC(=O)c2cccc(Cl)n2)cc1-n1cc(-c2cncc(N3CC4(COC4)C3)c2)cn1 [Compound 36, N-(3-(4-(5-(2-oxa-6-aza-spiro[3.3]hept-6-yl]pyridin-3-yl)-1H-pyrazol-1-yl)-4-methylphenyl)-6-chloropicolinamide]",9760
< 1.5,< 1.5,"Cc1ccc(NC(=O)c2cccc(F)n2)cc1-n1cc(-c2cncc(N3CCN(C)CC3)c2)cn1 [Compound 14, 6-fluoro-N-(4-methyl-3-(4-(5-(4-methylpiperazin-1-yl)pyridin-3-yl)-1H-pyrazol-1-yl)phenyl)picolinamide]",8400
< 1.5,< 1.5,"Cc1ccc(NC(=O)c2cccc(Cl)n2)cc1-n1cc(-c2cncc(N3CCN(C)CC3)c2)cn1 [Compound 17, 6-chloro-N-(4-methyl-3-(4-(5-(4-methylpiperazin-1-yl)pyridin-3-yl)-1H-pyrazol-1-yl)phenyl)picolinamide]",2800
< 10,< 10,"Cc1ccc(NC(=O)c2cc(C(F)(F)F)ccn2)cc1-n1cc(-c2cncc(N3CC4(COC4)C3)c2)cn1 [Compound 35, N-(3-(4-(5-(2-oxa-6-aza-spiro[3.3]hept-6-yl]pyridin-3-yl)-1H-pyrazol-1-yl)-4-methylphenyl)-4-(trifluoromethyl)picolinamide]",5840
< 1.5,< 1.5,"Cc1ccc(NC(=O)c2cncc(C(F)(F)F)c2)cc1-n1cc(-c2cncc(N3CCN(C)CC3)c2)cn1 [Compound 16, N-(4-methyl-3-(4-(5-(4-methylpiperazin-1-yl)pyridin-3-yl)-1H-pyrazol-1-yl)phenyl)-5-(trifluoromethyl)nicotinamide]",> 10000
< 10,< 10,"CN1CCN(c2cncc(-c3cn(-c4cc(NC(=O)c5cc(C(F)(F)F)ccn5)ccc4F)nn3)c2)CC1 [Compound 27, N-(4-fluoro-3-(4-(5-(4-methylpiperazin-1-yl)pyridin-3-yl)-1H-1,2,3-triazol-1-yl)phenyl)-4-(trifluoromethyl)picolinamide]",4730
< 10,< 10,"Cc1ccc(NC(=O)c2cccc(C(F)(F)F)n2)cc1-n1cc(-c2cncc(N3CC4(COC4)C3)c2)cn1 [Compound 32, N-(3-(4-(5-(2-oxa-6-aza-spiro[3.3]hept-6-yl]pyridin-3-yl)-1H-pyrazol-1-yl)-4-methylphenyl)-6-(trifluoromethyl)picolinamide]",9200
1,,"Cc1ccc(NC(=O)c2ccnc(C(F)(F)F)c2)cc1-n1cc(-c2cncc(N3CCOCC3)c2)cn1 [Compound 12, N-(4-methyl-3-(4-(5-morpholinopyridin-3-yl)-1H-pyrazol-1-yl)phenyl)-2 (trifluoromethyl)isonicotinamide]",~10000
